Reference: PMC11178805, “Ligand-based design of [^18F]OXD-2314 for PET imaging in non-Alzheimer’s disease tauopathies” (Nature Communications, 2024)
Where two headings read alike, the source gives them in different places.

How the values were obtained:
[1] = Mouse pharmacology (DMPK): plasma and brain concentrations, brain-to-plasma ratios after i.v. administration; format: in vivo, mice; conditions: mouse, brain, iv, mice, i.v., AUC brain:plasma
Description: Ex vivo evaluation of the BBB permeability of OXD-2314 was performed by measuring the brain-to-plasma ratios in mice. Compound concentrations in plasma (0.03 h, 0.17 h, 0.5 h, 1 h, and 2 h; n = 3 per timepoint) were compared with concentrations in brain (0.03 h, 0.17 h, 1 h, and 2 h; n = 3 per timepoint) for both OXD-2115 and OXD-2314. The total brain-to-plasma concentration ratios were 1.7 for OXD-2314 and 0.1 for OXD-2115. The free concentration ratio for brain-to-plasma was 0.6 for OXD-2314 and 0.002 for OXD-2115 (Figs. S3–S8 and Tables S2, S3).

[2] = target: T1, 4R-tau aggregates in PSP tissue (Homo sapiens, UniProt P10636); experiment: Competition binding vs [^3H]OXD-2115 in PSP tissue homogenates; conditions: vs [^3H]OXD-2115, PSP tissue homogenates, n = 1
T1 construct: tissue Neurodegenerative Disease Brain Bank at UCSF
T1 sequence (P10636 1-441 isoform P10636-8): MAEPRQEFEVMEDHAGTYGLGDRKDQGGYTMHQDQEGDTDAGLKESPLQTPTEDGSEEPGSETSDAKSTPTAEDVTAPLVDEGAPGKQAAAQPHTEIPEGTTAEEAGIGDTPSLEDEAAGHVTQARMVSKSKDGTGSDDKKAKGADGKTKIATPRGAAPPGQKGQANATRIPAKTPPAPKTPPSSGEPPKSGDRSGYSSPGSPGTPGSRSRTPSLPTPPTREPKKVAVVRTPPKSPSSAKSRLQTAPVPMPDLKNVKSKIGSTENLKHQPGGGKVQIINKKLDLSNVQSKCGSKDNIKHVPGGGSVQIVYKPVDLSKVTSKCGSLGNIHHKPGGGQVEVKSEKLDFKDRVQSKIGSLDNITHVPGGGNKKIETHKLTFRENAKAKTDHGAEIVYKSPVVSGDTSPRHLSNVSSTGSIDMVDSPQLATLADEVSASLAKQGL
Description: (§1) Fresh frozen, autopsy-confirmed human PD anterior cingulate cortex brain tissue blocks (1 cm^3) were obtained from Dr. Thomas Beach at Banner/Sun Health AZ with funding from the Michael J. Fox Foundation and contained frequent α-synuclein aggregates and no other detectable aggregated amyloid species. The frozen tissue blocks were prepared for the binding assays as previously described[47],[48], except that equal quantities of the homogenates of three AD brains (AD1-AD3, Table S1) were pooled, as were homogenates from three PSP brains (PSP1-PSP3), three CBD brains (CBD1-CBD3), three Pick’s brains (PiD1-PiD3), and 4 PD brains (PD1-PD4) in order to help minimize the inter-subject variability within the different neuropathological groups. Individual subcortical brain tissues from a PSP subject (PSP4) and a CBD subject (CBD4), as well as with the middle frontal cortex of a control subject, were prepared for the binding assays as previously described[47],[48].
(§2) The equilibrium inhibition constant (Ki) values of the unlabeled compounds were determined versus tritium-labeled radioligands using published methods.

[3] = target: T2, 3R-tau aggregates in PiD tissue (Homo sapiens, UniProt P10636); experiment: Competition binding vs [^3H]OXD-2314 in PiD tissue
T2 construct: tissue Neurodegenerative Disease Brain Bank at UCSF; host or cells: human PiD brain, middle frontal gyrus, pooled homogenate of three brains
T2 sequence (P10636 1-410 isoform P10636-5): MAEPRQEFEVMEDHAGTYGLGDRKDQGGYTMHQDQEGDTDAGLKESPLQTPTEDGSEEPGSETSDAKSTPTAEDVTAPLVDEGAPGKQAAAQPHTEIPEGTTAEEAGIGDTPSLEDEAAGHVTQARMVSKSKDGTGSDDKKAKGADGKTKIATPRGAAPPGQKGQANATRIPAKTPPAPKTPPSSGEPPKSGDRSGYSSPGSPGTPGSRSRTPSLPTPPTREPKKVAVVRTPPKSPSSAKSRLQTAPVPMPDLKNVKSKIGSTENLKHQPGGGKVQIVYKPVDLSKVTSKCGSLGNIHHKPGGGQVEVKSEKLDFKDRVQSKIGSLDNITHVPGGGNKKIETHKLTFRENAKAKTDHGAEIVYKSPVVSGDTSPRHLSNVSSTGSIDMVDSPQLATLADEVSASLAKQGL
Description: as §1, §2

[4] = target: T3, 3R/4R-tau aggregates in AD tissue (Homo sapiens, UniProt P10636); experiment: Competition binding vs [^3H]OXD-2314 in AD tissue
Description: as §1, §2
Target sequence in this assay (P10636 623-758 limits assumed): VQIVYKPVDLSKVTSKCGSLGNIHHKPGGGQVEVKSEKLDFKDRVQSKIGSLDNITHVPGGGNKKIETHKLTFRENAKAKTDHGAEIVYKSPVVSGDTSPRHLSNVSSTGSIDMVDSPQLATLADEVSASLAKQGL

[5] = target: T4, 4R-tau aggregates in CBD tissue (Homo sapiens, UniProt P10636); experiment: Competition binding vs [^3H]OXD-2314 in CBD tissue
T4 construct: tissue Neurodegenerative Disease Brain Bank at UCSF; host or cells: human CBD brain, middle frontal gyrus (pool of three) or putamen (one subject)
T4 sequence (P10636 1-441 isoform P10636-8): as the sequence (P10636 1-441 isoform P10636-8) above
Description: as §1, §2

[6] = target: T3, 3R/4R-tau aggregates in AD tissue; experiment: Competition binding vs [^3H]OXD-2115 in AD tissue homogenates; conditions: vs [^3H]OXD-2115, AD tissue homogenates, n = 1
Description: as §1, §2
Target sequence in this assay (P10636 623-695 limits assumed): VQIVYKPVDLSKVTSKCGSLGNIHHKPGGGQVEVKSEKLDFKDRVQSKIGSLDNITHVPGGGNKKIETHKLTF

[7] = target: T1, 4R-tau aggregates in PSP tissue; experiment: Competition binding vs [^3H]OXD-2314 in PSP tissue
Description: as §1, §2

[8] = Baseline PET-CT imaging of [18F]OXD-2188 and [18F]OXD-2189 in rats; format: in vivo, rat; conditions: normal rats, n = 2
Description: In vitro characterization, radiosynthesis and rat PET imaging of [ 18F ]O X D -2188 and […]
In vitro characterization. Ki values for OXD-21188 and OXD-2189 vs. [3H]OXD- 2115 in PSP tissue was 29.8 nM and 13.7nM respectively.
Radiochemistry. [18F]OXD- 2188 and [18F]OXD- 2189 were radiolabeled using the same […]
radiochemical purity above 95%, molar activity of 60.1 and 58.4 GBq/μmol, respectively, and radiochemical yield of 9% (not decay- co rrected).
PET imaging. Three adul t rats (two females and o ne male) w ere used in b aseline PET imaging of [18F]OXD- 2188 and [18F]OXD- 2189 (16- 23 MBq injected, with the m ale rat being scanned twice on two consecutive d ays). […]
for both [18F]OXD- 2188 (n=2) and [18F]OXD- 2189 (n=2) with rapid clearance of radioactivity from the brain (Figure S1).
Figure S1. Structures of OXD-2188 and OXD-2189, time-activity curves and representative PET summation images […]

## OCC1CCN(c2ccc(-c3cc4cc(O)ccc4[nH]3)c(F)n2)CC1 [OXD-2115]
[1]; FREE, read-out: free concentration ratio brain-to-plasma
  Kp,uu (unbound brain-to-plasma ratio): 0.002
[1]; TOTAL, read-out: total brain-to-plasma concentration ratio
  Kp: 0.1
[2]
  Ki: 27 nM
[3]
  Ki: 23 nM
[4]
  Ki: 14 nM
[5]
  Ki: 30 nM
[6]
  Ki: 20 nM
[7]
  Ki: 27 nM

## NCCNC(=O)c1ncsc1-c1cccc(F)c1 [Ro41-1049]
[4]; vs [^3H]OXD-2314, AD tissue
  Ki: > 10000 nM
[5]; vs [^3H]OXD-2314, CBD tissue
  Ki: > 10000 nM
[7]; vs [^3H]OXD-2314, PSP tissue
  Ki: > 10000 nM

## Oc1ccc2[nH]c(-c3ccc(N4CCCC(F)C4)nc3F)cc2c1 (stereo not drawn) [OXD-2312]
[2]
  Ki: 5.1 nM
[6]
  Ki: 12 nM

## Oc1ccc2[nH]c(-c3ccc(N4CCC(F)CC4)nc3F)cc2c1 [OXD-2317]
[2]
  Ki: 5.8 nM
[6]
  Ki: 5.4 nM

## Oc1ccc2[nH]c(-c3ccc(F)nc3N3CCCC(F)C3)cc2c1 (stereo not drawn) [OXD-2313]
[2]
  Ki: 4.8 nM
[6]
  Ki: 11 nM

## Oc1ccc2[nH]c(-c3ccc(N4CCC[C@H](O)C4)nc3F)cc2c1 [OXD-2189]
[2]
  Ki: 13.7 nM

## C#CCN(C)C(C)Cc1ccccc1 (stereo not drawn) [Deprenyl]
[4]; vs [^3H]OXD-2314, AD tissue
  Ki: 2900 nM
[5]; vs [^3H]OXD-2314, CBD tissue
  Ki: 5000 nM
[7]; vs [^3H]OXD-2314, PSP tissue
  Ki: 3000 nM

## Oc1ccc2[nH]c(-c3ccc(N4CCC[C@H](O)C4)nc3[18F])cc2c1 [[18F]OXD-2189]
[8]
  initial brain uptake: ~ 1.0 SUV

## Oc1ccc2[nH]c(-c3ccc(N4CCC(O)CC4)nc3F)cc2c1 [OXD-2310]
[2]
  Ki: 6.6 nM
[6]
  Ki: 21 nM

## Fc1ccc(-c2ccc3c(c2)[nH]c2ccncc23)cn1 [Tauvid]
[3]
  Ki: 4400 nM
[4]
  Ki: > 10000 nM
[5]
  Ki: > 10000 nM
[7]
  Ki: > 10000 nM

## CO[C@H]1CCCN(c2ncc(-c3cc4cc(O)ccc4[nH]3)c(F)n2)C1 [OXD-2331]
[2]
  Ki: 6.3 nM
[6]
  Ki: 7.4 nM

## Oc1ccc2[nH]c(-c3ccc(N4CCC[C@@H](O)C4)nc3F)cc2c1 [OXD-2188]
[2]
  Ki: 29.8 nM

## Oc1ccc2[nH]c(-c3ccc(N4CCC[C@@H](O)C4)nc3[18F])cc2c1 [[18F]OXD-2188]
[8]
  initial brain uptake: ~ 1.0 SUV

## Nc1c(F)ccc2cnc(-n3ccc4ccncc43)cc12 [MK-6240]
[3]
  Ki: 1000 nM
[4]
  Ki: 1900 nM
[5]
  Ki: 1700 nM
[7]
  Ki: 5600 nM
